{"source": "patent US6518296B1", "about": "“Substituted 3-thiocarbamoylpyrazoles” (Bayer Aktiengesellschaft, priority 1998, dated 2003)", "key": {"[1]": {"tested_on": "Boophilus microplus resistant/SP-resistant Parkhurst strain", "experiment": "Test with Boophilus microplus resistant/SP-resistant Parkhurst strain (dip test, kill)", "type": "in vivo", "conditions": "active compound concentration of 100 ppm; dipped for 1 minute", "description": "Test with Boophilus microplus resistant/SP-resistant Parkhurst strain\n(§1) Test animals: Adult females which have sucked themselves full\n(§2) Solvent: Dimethyl sulphoxide\n(§3) 20 mg of active compound are dissolved in 1 ml of dimethyl sulphoxide, while dilute concentrations are prepared by dilution with dist. H2O.\n10 adult Boophilus microplus res. are dipped for 1 minute into the preparation of active compound to be tested. The animals are transferred into plastic beakers and kept in a climatized room, and the kill rate is then determined.\n100% means that all ticks have been killed; 0% means that none of the ticks have been killed."}, "[2]": {"tested_on": "Boophilus microplus resistant/SP-resistant Parkhurst strain", "experiment": "Test with Boophilus microplus resistant/SP-resistant Parkhurst strain (injection, inhibition of oviposition)", "type": "in vivo", "conditions": "20 μg/animal; injected into the abdomen; after 7 days", "description": "Test with Boophilus microplus resistantlSP-resistant Parkhurst strain\nas §1, §2\n20 mg of active compound are dissolved in 1 ml of dimethyl sulphoxide, while dilute concentrations are prepared by dilution with the same solvent.\nThe test is carried out in 5 replications. […] of the solutions is injected into the abdomen, the animals are transferred into dishes and kept in a climatized room. After 7 days, the activity control is carried out for inhibition of ovi position. An activity of 100% means that none of the ticks has deposited eggs."}, "Lucilia cuprina larvae": {"tested_on": "Lucilia cuprina larvae", "experiment": "Blowfly larvae test/development-inhibitory action", "type": "in vivo", "conditions": "active compound concentration of 100 ppm, read-out: activity (development-inhibitory action; 100% means that no flies have hatched)", "description": "Blowfly larvae test/development-inhibitory action\nTest animals: Lucilia cuprina larvae\nas §2, §3\nAbout 20 Lucilia cuprina larvae are introduced into a test tube containing about 1 cm^3 of horse meat and 0.5 ml of the preparation of active compound. After 24 and 48 hours, the activity of the preparation of active compound is determined. The test tubes are transferred into beakers whose bottom is covered with sand. After a further 2 days, the test tubes are removed and the pupae are counted.\nThe activity of the active compound preparation is assessed by the number of flies which have hatched after 1.5 times the development time of an untreated control. 100% means that no flies have hatched; 0% means that all flies have hatched normally."}, "[3]": {"tested_on": "green peach aphid (Myzus persicae)", "experiment": "Myzus test", "type": "in vivo", "conditions": "active compound concentration of 0.1%; after 6 days; dipped cabbage leaves", "description": "Solvent: 7 parts by weight of dimethylformamide\nEmulsifier: 1 part by weight of alkylaryl polyglycol ether\nTo produce a suitable preparation of active compound, 1 part by weight of active compound is mixed with the stated amounts of solvent and emulsifier, and the concentrate is diluted with water to the desired concentration.\nCabbage leaves (Brassica oleracea) which are heavily infested by the green peach aphid (Mycus persicae) are treated by being dipped into the preparation of active compound of the desired concentration.\nAfter the desired period of time, the kill in % is determined. 100% means that all aphids have been killed; 0% means that none of the aphids have been killed."}}, "data": [{"smiles": "CCSc1c(C(N)=S)nn(-c2c(Cl)cc(C(F)(F)F)cc2Cl)c1N", "note": "[Preparation Example 1, 5-amino-4-ethylthio-l-(2,6-dichloro-4-trifluoro-methylphenyl)-3-thiocarbamoyl-pyrazole]", "values": [{"measurement": "activity (kill rate of ticks)", "setting": "[1]", "result": 100, "unit": "%"}, {"measurement": "activity (inhibition of oviposition)", "setting": "[2]", "result": 100, "unit": "%"}, {"measurement": "inhibition at 100 ppm", "setting": "Lucilia cuprina larvae", "result": 100, "unit": "%"}, {"measurement": "kill", "setting": "[3]", "result": 90, "unit": "%"}, {"measurement": "melting point", "result": 101, "unit": "°C"}]}]}
